# According to patent publication US8119691B2, “Method for treating airway hyper-responsiveness with lipoxin analogs” (National Institutes of Health (NIH), priority 2001, dated 2012):
# Assays:
# [1] = target: T1, recombinant cysLT1 receptors (Homo sapiens, UniProt Q9Y271); conditions: CHO cells, in vitro (ref. 12); cited from earlier work
# T1 construct: host or cells: Chinese hamster ovary cells (recombinant expression)
# T1 sequence (Q9Y271 1-337): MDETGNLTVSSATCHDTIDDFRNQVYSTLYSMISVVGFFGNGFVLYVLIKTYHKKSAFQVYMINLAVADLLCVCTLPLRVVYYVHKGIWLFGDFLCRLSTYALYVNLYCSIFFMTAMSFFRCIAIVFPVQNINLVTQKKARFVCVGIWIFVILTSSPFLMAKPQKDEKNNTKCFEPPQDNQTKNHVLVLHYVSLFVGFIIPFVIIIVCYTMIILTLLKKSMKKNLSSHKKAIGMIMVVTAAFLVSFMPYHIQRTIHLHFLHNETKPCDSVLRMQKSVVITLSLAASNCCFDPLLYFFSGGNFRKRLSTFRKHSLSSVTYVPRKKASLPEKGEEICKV
# OVA sensitized mice = assay: Airway responsiveness to intravenous methacholine (lung resistance, ED200) in OVA sensitized and aerosol challenged mice; type: in vivo, mouse (BALB/c)
# Method: FIG. 1. Inhibition of airway hyper-responsiveness with LXa. OVA sensitized mice were treated with LXa ([…]) (o) or vehicle (•) prior to OVA aerosol challenge. Airway reactivity was determined by methacholine-dependent change in lung resistance (a) and calculation of ED200 (b). Results are expressed as mean±SEM (n≧17 in (a) and n≧6 (b)). *P<0.05 by Student's t-test compared to control animals.
# After systemic sensitization to ovalbumin (OVA, 10 μg i.p.), male Balb/c mice (5-7 weeks) were exposed to aerosolized OVA (6%, 25 min) on four successive days. 24 hours after the last aerosol, bronchial responsiveness to intravenous methacholine was determined (as in refs. 14, 15), bronchoalveolar lavage was performed and tissues were harvested for microscopy. […] After allergen sensitization and aerosol challenge, high levels of both CysLT (139.0+/−27.3 pg CysLT/ml, mean+/−SEM, n=9) and PGE2 (1117.7+/−103.8 pg PGE2/ml, mean+/−SEM, n=5) in bronchoalveolar lavage (BAL) (Table 1) were identified. In these same BAL fluids, LXA4 was also present (15.0+/−3.3 pg LXA4/ml, mean+/−SEM, n=5) at levels similar to LTB4 (6.4+/−2.3 pg LTB4/ml, mean+/−SEM, n=9), but in 10- to 100-fold lower concentrations than CysLT's and PGE2, respectively (Table 1). LXA4 was not detected in cell-free BAL supernatants from non-immunized mice.
# Sensitization and challenge protocols. Five to seven week old male BALB/c (Charles River Laboratories, Wilmington, Mass.) or female hCD11b-hALX FvB transgenic mice were housed in isolation cages under viral antibody-free conditions. After Harvard Medical Area IRB approval (Protocol #02570), mice were sensitized with intraperitoneal injections of ovalbumin (OVA) (Grade III; Sigma Chemical Co., St. Louis, Mo.) (10 μg) plus 1 mg aluminum hydroxide (ALUM) (J.T. Baker Chemical Co.; Phillipsburg, N.J.) as adjuvant in 0.2 ml PBS on days 0 and 7. […] On day 18, 24 h after the last aerosol challenge, airway responsiveness to intravenous methacholine (33-1000 μg/kg) was measured, bilateral bronchoalveolar lavage (BAL) (2 aliquots of 1 ml PBS plus 0.6 mM EDTA) was performed and tissues (whole blood, lungs, mediastinal lymph nodes and spleen) were harvested for histological analysis. Lung resistance (RL) was measured using a sealed constant mass plethysmograph. […] For mice studied using a whole body plethysmograph to assess airway responsiveness (Buxco), each mouse was placed into a chamber and box pressure/time waveform was analyzed to yield the indicator of airflow obstruction, enhanced pause (Penh). […] Readings were initiated at 3 min and continued for 12 min. Peak and one min average Penh values were determined. Serum total IgE levels were determined by ELISA (Crystal Chem, Chicago, Ill.). […]
# [2] = cited from earlier work
smiles,measurement,setting,value
"COC(=O)CCC[C@H](O)[C@H](O)/C=C/C=C/C=C\C=C\[C@H](O)COc1ccc(F)cc1 [LXa, 15-epi,16-para-fluoro-phenoxy-LXA4-methyl ester]",competition for binding at LTD4 recognition sites and recombinant cysLT1 receptors,[1],compete for binding with high affinity at LTD4 recognition sites
same,ED200 to methacholine,"OVA sensitized mice; LXa 10 μg i.v., OVA sensitized and challenged mice",approximated the responses of control mice that had been sensitized but not challenged with OVA
same,"ED200 to methacholine, LXa administration alone","OVA sensitized mice; LXa alone, compared to control mice",no significant differences in ED200 compared to control mice
same,bronchoconstriction in response to methacholine (change in lung resistance),"OVA sensitized mice; LXa i.v. at least 60 min prior to OVA challenge, OVA sensitized mice",significantly inhibited bronchoconstriction in response to methacholine in a dose-dependent manner
same,deleterious physiologic or behavioral effects,OVA sensitized mice; LXa treated mice,Neither deleterious physiologic nor behavioral effects were evident
same,metabolic inactivation,[2],resists metabolic inactivation
